Assays:
[1] = compound: CS(=O)(=O)N1CCN(Cc2cc3nc(-c4cccc5[nH]ncc45)nc(N4CCOCC4)c3s2)CC1 [Pictilisib] + CC(=O)c1c(C)c2cnc(Nc3ccc(N4CCNCC4)cn3)nc2n(C2CCCC2)c1=O [Palbociclib] (partner 0.5 µM); assay: relative viability (nuclei count vs DMSO), 5 days (fraction); higher = more cells survive
Procedure, shortened: (§1)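 Lung cancer cell lines were pin-tool dosed in 1536-well plates on the day after seeding, with either a lone drug or a fixed anchor-drug dose plus five library-drug doses (not always all listed) in √10 steps. Nuclei were counted on 4× images after 5 days. Relative viability is the ratio of treated-well to vehicle-well nuclei counts, with each value a median of duplicate plates.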

[2] = compound: CS(=O)(=O)N1CCN(Cc2cc3nc(-c4cccc5[nH]ncc45)nc(N4CCOCC4)c3s2)CC1 [Pictilisib] + Nc1ncn([C@H]2C[C@H](O)[C@@H](CO)O2)c(=O)n1 [Decitabine] (partner 2 µM); assay: as above
Procedure, shortened: as §1

Cell Line	relative viability ([1]; first compound 0.02 µM)	relative viability ([1]; first compound 0.06325 µM)	relative viability ([1]; first compound 0.6325 µM)	relative viability ([1]; first compound 2 µM)	relative viability ([2]; first compound 0.02 µM)	relative viability ([2]; first compound 0.06325 µM)	relative viability ([2]; first compound 0.6325 µM)	relative viability ([2]; first compound 2 µM)
NCI-H650	0.323	0.308	0.271	0.265	0.336	0.297	0.318	0.411
A-427	0.512	0.511	0.504	0.508	0.579	0.492	0.486	0.453
NCI-H2347	0.448	0.398	0.433	0.363	0.663	0.658	0.579	0.502
NCI-H1793	0.25	0.234	0.199	0.183	0.436	0.518	0.343	0.239
NCI-H1651	0.518	0.499	0.496	0.378	0.473	0.603	0.505	0.413
HCC-78	0.566	0.481	0.403	0.361	0.604	0.607	0.6	0.402
NCI-H23	0.505	0.439	0.351	0.186	0.305	0.333	0.309	0.271
LOU-NH91	0.524	0.546	0.563	0.514	0.827	0.829	0.771	0.7
LXF-289	0.584	0.588	0.621	0.398	0.361	0.4	0.337	0.443
NCI-H460	0.185	0.161	0.111	0.0339	0.528	0.558	0.301	0.109
NCI-H1792	0.62	0.693	0.512	0.34	0.509	0.592	0.491	0.22
EMC-BAC-2	0.502	0.498	0.401	0.337	0.967	0.978	0.838	0.653
CAL-12T	0.385	0.604	0.457	0.167	–	–	–	–
ChaGo-K-1	0.942	0.954	0.844	0.72	0.526	0.51	0.491	0.495
COR-L 105	0.429	0.477	0.423	0.399	0.681	0.656	0.62	0.541
NCI-H1944	0.322	0.235	0.226	0.183	0.423	0.352	0.391	0.315
NCI-H2009	0.149	0.175	0.165	0.125	0.443	0.406	0.412	0.329
SW 900	0.543	0.58	0.358	0.252	0.367	0.524	0.45	0.418
NCI-H441	0.216	0.192	0.152	0.148	0.263	0.234	0.265	0.281
NCI-H1437	0.309	0.337	0.401	0.216	0.499	0.534	0.536	0.438
PC-14	0.488	0.564	0.507	0.334	0.245	0.254	0.302	0.322
LCLC-103H	0.525	0.485	0.44	0.351	0.705	0.77	0.55	0.617
COR-L23	0.335	0.349	0.273	0.208	0.443	0.474	0.402	0.372
H3255	0.314	0.375	0.297	0.292	0.667	0.521	0.466	0.342
NCI-H2126	0.357	0.317	0.32	0.341	0.559	0.57	0.473	0.494

Cell Line	relative viability ([1]; first compound 0.02 µM)	relative viability ([1]; first compound 0.06325 µM)	relative viability ([1]; first compound 0.6325 µM)	relative viability ([1]; first compound 2 µM)	relative viability ([2]; first compound 0.02 µM)	relative viability ([2]; first compound 0.06325 µM)	relative viability ([2]; first compound 0.6325 µM)	relative viability ([2]; first compound 2 µM)
HCC-366	0.434	0.305	0.133	0.0473	0.335	0.304	0.194	0.114
LU99A	0.426	0.288	0.316	0.177	0.969	0.919	0.901	0.441
HOP-62	0.526	0.423	0.399	0.287	0.215	0.283	0.267	0.329
HCC-15	0.682	0.704	0.678	0.475	0.668	0.609	0.406	0.369
HARA	0.305	0.269	0.187	0.161	0.605	0.64	0.453	0.307
SK-MES-1	0.326	0.302	0.346	0.262	0.351	0.388	0.359	0.339
NCI-H1355	0.405	0.356	0.293	0.217	0.336	0.388	0.383	0.331
NCI-H727	0.595	0.65	0.541	0.496	0.651	0.979	0.699	0.781
NCI-H520	0.217	0.234	0.144	0.125	0.492	0.478	0.237	0.168
NCI-H838	0.191	0.206	0.174	0.124	0.474	0.492	0.381	0.371
HCC-44	1.02	1.01	0.955	0.977	0.92	0.958	0.926	0.94
LK-2	0.588	0.673	0.354	0.259	0.238	0.302	0.197	0.163
HCC-827	0.517	0.415	0.234	0.188	0.258	0.363	0.288	0.311
SW 1573	0.417	0.345	0.207	0.191	0.688	0.587	0.354	0.285
NCI-H2023	0.339	0.33	0.161	0.148	0.211	0.2	0.215	0.148
EPLC-272H	0.348	0.298	0.317	0.243	0.428	0.371	0.319	0.171
SK-LU-1	0.401	0.382	0.307	0.31	0.612	0.695	0.559	0.525
NCI-H358	0.116	0.165	0.121	0.115	0.199	0.199	0.18	0.115
ABC-1	0.683	0.583	0.469	0.416	1.16	1.19	1.07	0.703
NCI-H1395	0.657	0.696	0.515	0.412	0.708	0.798	0.652	0.5
NCI-H2085	0.465	0.462	0.362	0.267	0.521	0.631	0.511	0.369
NCI-H2087	0.199	0.255	0.19	0.162	0.212	0.344	0.189	0.151
NCI-H322M	0.496	0.495	0.448	0.415	0.735	0.696	0.656	0.43
NCI-H1734	0.303	0.338	0.281	0.192	0.472	0.481	0.418	0.338
NCI-H2228	0.64	1.04	0.492	0.282	–	–	–	–

Cell Line	relative viability ([1]; first compound 0.02 µM)	relative viability ([1]; first compound 0.06325 µM)	relative viability ([1]; first compound 0.6325 µM)	relative viability ([1]; first compound 2 µM)	relative viability ([2]; first compound 0.02 µM)	relative viability ([2]; first compound 0.06325 µM)	relative viability ([2]; first compound 0.6325 µM)	relative viability ([2]; first compound 2 µM)
EKVX	0.378	0.348	0.348	0.184	0.318	0.334	0.249	0.195
NCI-H596	–	–	–	–	0.963	1.02	0.756	0.403
NCI-H1975	0.553	0.544	0.342	0.143	0.385	0.377	0.329	0.257
NCI-H2170	0.351	0.375	0.266	0.165	0.46	0.445	0.462	0.366
NCI-H1666	0.606	0.713	0.668	0.607	0.659	0.719	0.702	0.574
PC-3 [JPC-3]	0.539	0.494	0.534	0.456	0.84	0.92	0.813	0.748
NCI-H1755	0.447	0.417	0.458	0.323	0.743	0.667	0.748	0.565
RERF-LC-KJ	1.02	1.15	0.815	0.711	0.711	0.618	0.54	0.479
NCI-H647	0.365	0.419	0.254	0.144	0.308	0.389	0.276	0.236
BEN	0.442	0.488	0.443	0.439	0.659	0.776	0.806	0.554
201T	0.332	0.377	0.332	0.284	0.869	0.83	0.675	0.843
LC-2-ad	0.486	0.532	0.298	0.265	0.758	0.836	0.661	0.637
A549	–	–	–	–	0.256	0.289	0.259	0.22
NCI-H522	1.07	0.785	0.833	0.692	0.66	0.609	0.657	0.607
LCLC-97TM1	0.206	0.269	0.125	0.0838	0.244	0.238	0.169	0.18
NCI-H1915	0.524	0.542	0.5	0.471	0.259	0.251	0.259	0.283
NCI-H3122	0.181	0.194	0.176	0.139	0.443	0.412	0.287	0.115
NCI-H1650	0.381	0.334	0.223	0.193	0.41	0.39	0.438	0.432
NCI-H1648	0.248	0.236	0.256	0.216	0.528	0.469	0.367	0.319
NCI-H1993	0.573	0.622	0.497	0.37	0.692	0.483	0.459	0.458
NCI-H2405	0.579	0.536	0.474	0.374	0.765	0.72	0.571	0.388
NCI-H661	0.446	0.384	0.347	0.299	0.546	0.58	0.523	0.412
NCI-H2342	0.515	0.507	0.444	0.403	0.736	0.672	0.688	0.445

— the supplement of paper PMC10307832
